Like-named read-outs stand apart in the source and are kept apart here.
Key:
[1] = target: AEA-DA lipid probe targets in Neuro2a cells (Mus musculus, UniProt Q9JKW0)
[2] = target: T1, AEA-DA lipid probe targets in Neuro2a cells (Mus musculus, UniProt Q8R127)
T1 sequence (Q8R127 1-429): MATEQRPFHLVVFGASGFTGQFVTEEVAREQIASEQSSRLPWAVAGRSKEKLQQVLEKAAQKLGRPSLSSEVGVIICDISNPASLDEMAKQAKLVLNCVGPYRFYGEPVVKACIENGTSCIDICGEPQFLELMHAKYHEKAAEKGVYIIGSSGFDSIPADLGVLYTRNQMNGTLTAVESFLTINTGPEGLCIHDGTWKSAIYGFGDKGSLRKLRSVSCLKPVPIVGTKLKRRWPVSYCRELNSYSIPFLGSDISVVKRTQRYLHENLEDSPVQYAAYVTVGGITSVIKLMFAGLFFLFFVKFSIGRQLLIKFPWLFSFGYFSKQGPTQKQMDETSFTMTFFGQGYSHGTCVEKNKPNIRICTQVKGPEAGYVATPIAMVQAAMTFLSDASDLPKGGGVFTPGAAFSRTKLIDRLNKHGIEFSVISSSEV

[3] = target: T2, AEA-DA lipid probe targets in Neuro2a cells (Mus musculus, UniProt Q9CQQ7)
T2 sequence (Q9CQQ7 43-256): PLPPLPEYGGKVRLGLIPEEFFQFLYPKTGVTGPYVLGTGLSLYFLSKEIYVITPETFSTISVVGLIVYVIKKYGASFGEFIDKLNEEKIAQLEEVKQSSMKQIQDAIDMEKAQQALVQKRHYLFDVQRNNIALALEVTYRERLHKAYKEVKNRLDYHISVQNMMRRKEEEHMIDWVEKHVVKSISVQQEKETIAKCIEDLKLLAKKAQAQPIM

[4] = target: AEA-DA lipid probe targets in Neuro2a cells (Mus musculus, UniProt Q8JZU2)
[5] = target: AEA-DA lipid probe targets in Neuro2a cells (Mus musculus, UniProt Q8C0L6)
[6] = target: AEA-DA lipid probe targets in Neuro2a cells (Mus musculus, UniProt Q9CQ45)
[7] = target: T3, AEA-DA lipid probe targets in Neuro2a cells (Mus musculus, UniProt O08749)
T3 sequence (O08749 36-509): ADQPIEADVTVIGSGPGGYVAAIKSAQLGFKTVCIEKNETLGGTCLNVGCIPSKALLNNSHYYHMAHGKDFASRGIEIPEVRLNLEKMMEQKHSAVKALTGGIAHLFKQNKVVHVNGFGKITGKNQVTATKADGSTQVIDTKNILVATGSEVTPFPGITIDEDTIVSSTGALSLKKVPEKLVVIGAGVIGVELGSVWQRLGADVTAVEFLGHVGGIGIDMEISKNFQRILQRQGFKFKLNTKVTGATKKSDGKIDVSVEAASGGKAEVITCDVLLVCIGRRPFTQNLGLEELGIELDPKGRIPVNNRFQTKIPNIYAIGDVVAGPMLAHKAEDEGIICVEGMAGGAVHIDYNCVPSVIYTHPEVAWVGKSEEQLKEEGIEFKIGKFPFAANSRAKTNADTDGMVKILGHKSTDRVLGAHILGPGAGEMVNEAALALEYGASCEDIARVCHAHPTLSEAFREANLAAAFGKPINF

[8] = target: AEA-DA lipid probe targets in Neuro2a cells (Mus musculus, UniProt Q8VDQ1)
[9] = target: AEA-DA lipid probe targets in Neuro2a cells (Mus musculus, UniProt Q91WD5)
[10] = target: T4, AEA-DA lipid probe targets in Neuro2a cells (Mus musculus, UniProt Q8BTV1)
T4 sequence (Q8BTV1 42-347): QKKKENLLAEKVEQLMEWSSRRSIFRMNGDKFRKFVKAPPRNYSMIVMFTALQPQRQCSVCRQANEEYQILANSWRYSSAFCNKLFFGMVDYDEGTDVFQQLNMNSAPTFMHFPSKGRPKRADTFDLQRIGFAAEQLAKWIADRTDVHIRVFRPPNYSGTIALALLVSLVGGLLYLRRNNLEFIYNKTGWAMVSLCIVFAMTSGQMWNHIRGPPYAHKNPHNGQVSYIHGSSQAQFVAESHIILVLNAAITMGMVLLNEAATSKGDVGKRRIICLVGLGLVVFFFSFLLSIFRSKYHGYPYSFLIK

Chain of AEA-DA lipid probe targets in Neuro2a cells (Mus musculus, UniProt Q8C0L6) (Q8C0L6 whole entry): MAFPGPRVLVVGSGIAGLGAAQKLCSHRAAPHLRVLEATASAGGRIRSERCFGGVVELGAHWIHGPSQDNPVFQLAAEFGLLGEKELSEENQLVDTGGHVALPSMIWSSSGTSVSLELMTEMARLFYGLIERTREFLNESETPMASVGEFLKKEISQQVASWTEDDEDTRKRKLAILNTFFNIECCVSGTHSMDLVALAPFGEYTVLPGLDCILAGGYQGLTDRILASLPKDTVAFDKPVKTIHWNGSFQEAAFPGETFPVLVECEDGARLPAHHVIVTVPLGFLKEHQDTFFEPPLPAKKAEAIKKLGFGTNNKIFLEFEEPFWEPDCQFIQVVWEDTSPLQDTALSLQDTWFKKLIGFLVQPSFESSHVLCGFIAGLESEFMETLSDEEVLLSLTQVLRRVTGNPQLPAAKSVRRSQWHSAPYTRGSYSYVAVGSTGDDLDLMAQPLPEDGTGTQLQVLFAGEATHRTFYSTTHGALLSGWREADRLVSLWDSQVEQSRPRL
Chain of AEA-DA lipid probe targets in Neuro2a cells (Mus musculus, UniProt Q91WD5) (Q91WD5 34-463): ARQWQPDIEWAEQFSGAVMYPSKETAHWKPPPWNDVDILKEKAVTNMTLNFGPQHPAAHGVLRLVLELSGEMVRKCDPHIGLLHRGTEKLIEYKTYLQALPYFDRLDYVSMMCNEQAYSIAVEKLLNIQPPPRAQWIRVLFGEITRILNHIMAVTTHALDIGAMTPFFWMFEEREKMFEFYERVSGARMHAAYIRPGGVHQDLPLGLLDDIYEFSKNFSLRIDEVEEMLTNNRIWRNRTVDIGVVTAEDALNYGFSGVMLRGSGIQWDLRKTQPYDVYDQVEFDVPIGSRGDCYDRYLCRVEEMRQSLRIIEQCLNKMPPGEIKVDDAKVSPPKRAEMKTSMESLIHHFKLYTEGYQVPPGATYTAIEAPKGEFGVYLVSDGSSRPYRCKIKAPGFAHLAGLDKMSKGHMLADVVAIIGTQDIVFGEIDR
Chain of AEA-DA lipid probe targets in Neuro2a cells (Mus musculus, UniProt Q9CQ45) (Q9CQ45 31-171): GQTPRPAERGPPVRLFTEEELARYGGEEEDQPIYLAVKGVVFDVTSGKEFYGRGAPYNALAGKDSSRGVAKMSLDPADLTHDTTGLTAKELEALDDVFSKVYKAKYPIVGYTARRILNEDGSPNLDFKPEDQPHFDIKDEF
Chain of AEA-DA lipid probe targets in Neuro2a cells (Mus musculus, UniProt Q8VDQ1) (Q8VDQ1 whole entry): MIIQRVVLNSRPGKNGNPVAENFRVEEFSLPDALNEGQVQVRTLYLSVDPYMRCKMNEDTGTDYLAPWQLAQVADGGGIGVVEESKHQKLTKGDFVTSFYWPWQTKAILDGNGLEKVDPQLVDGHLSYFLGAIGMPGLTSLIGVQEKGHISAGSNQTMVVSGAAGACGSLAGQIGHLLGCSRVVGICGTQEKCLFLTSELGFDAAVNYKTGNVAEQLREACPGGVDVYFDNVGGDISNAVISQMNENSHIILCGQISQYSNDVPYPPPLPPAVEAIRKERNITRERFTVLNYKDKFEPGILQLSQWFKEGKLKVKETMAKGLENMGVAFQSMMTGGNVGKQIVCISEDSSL
Chain of AEA-DA lipid probe targets in Neuro2a cells (Mus musculus, UniProt Q9JKW0) (Q9JKW0 whole entry): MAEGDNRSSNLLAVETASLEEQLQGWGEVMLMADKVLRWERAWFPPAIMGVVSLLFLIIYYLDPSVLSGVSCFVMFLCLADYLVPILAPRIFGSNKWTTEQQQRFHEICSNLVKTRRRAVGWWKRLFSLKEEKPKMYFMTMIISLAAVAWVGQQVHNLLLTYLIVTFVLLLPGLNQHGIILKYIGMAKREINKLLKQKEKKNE
Chain of AEA-DA lipid probe targets in Neuro2a cells (Mus musculus, UniProt Q8JZU2) (Q8JZU2 14-311): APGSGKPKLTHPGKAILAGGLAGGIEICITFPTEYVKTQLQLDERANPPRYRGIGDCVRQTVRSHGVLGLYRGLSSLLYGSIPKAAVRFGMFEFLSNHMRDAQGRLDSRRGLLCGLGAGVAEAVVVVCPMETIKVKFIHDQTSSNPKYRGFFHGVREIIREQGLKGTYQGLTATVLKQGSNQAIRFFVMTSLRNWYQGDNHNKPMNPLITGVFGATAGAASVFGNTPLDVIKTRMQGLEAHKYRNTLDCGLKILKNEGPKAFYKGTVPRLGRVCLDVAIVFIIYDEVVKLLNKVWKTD

Which “SILAC ratio Arl6ip1” value ([1]; competitor 200 μM) does the source give for CCCCC/C=C\C/C=C\C/C=C\C/C=C\CCCC(=O)NCCO [AEA, anandamide, reference compound] here?
The value was 1.5.

And the “SILAC ratio, Sccpdh” value ([2]; competitor 200 μM)?
Its value is 3.4.

And the “SILAC ratio Atp5f1” value ([3]; competitor 200 μM)?
The value was 1.5.

And the “SILAC ratio Slc25a1” value ([4]; competitor 200 μM)?
The value was 1.2.

And the “SILAC ratio, Paox” value ([5]; competitor 200 μM)?
The value was 7.5.

What about the “SILAC ratio, Nenf” value ([6]; competitor 200 μM) of the same compound?
The value was 1.4.

And the “SILAC ratio Dld” value ([7]; competitor 200 μM)?
Its value is 1.1.

And the “SILAC ratio, Ptgr2” value ([8]; competitor 200 μM)?
Its value is 8.7.

And the “SILAC ratio Ndufs2” value ([9]; competitor 200 μM)?
Its value is 1.3.

And the “SILAC ratio, Tusc3” value ([10]; competitor 200 μM)?
The value was 1.7.

How did the “SILAC ratio Arl6ip1” value ([1]; competitor 25 μM) turn out when O=C(/C=C/c1cccnc1)NCCCCC1CCN(C(=O)c2ccccc2)CC1 [FK-866, reference compound] was run?
Its value is 1.0.

And the “SILAC ratio, Sccpdh” value ([2]; competitor 25 μM)?
Its value is 7.3.

And the “SILAC ratio Atp5f1” value ([3]; competitor 25 μM)?
The value was 1.1.

What about the “SILAC ratio Slc25a1” value ([4]; competitor 25 μM) of the same compound?
The value was 1.2.

And the “SILAC ratio, Paox” value ([5]; competitor 25 μM)?
Its value is 3.2.

What about the “SILAC ratio, Nenf” value ([6]; competitor 25 μM) of the same compound?
The value was 2.6.

And the “SILAC ratio Dld” value ([7]; competitor 25 μM)?
The value was 1.1.

What about the “SILAC ratio, Ptgr2” value ([8]; competitor 25 μM) of the same compound?
Its value is 5.2.

What about the “SILAC ratio Ndufs2” value ([9]; competitor 25 μM) of the same compound?
The value was 1.7.

And the “SILAC ratio, Tusc3” value ([10]; competitor 25 μM)?
Its value is 1.3.

For CN1CCN(C(=O)c2c(-c3ccccc3)c3cc([N+](=O)[O-])ccc3n2C)CC1 [KML110, (1-Methyl-5-nitro-3-phenyl-1H-indol-2-yl)(4-methylpiperazin-1-yl)methanone], which “SILAC ratio Arl6ip1” value ([1]; competitor 25 μM) is on record?
The value was 1.4.

What about the “SILAC ratio, Sccpdh” value ([2]; competitor 25 μM) of the same compound?
Its value is 2.6.

What about the “SILAC ratio Atp5f1” value ([3]; competitor 25 μM) of the same compound?
Its value is 1.6.

What about the “SILAC ratio Slc25a1” value ([4]; competitor 25 μM) of the same compound?
Its value is 1.2.

And the “SILAC ratio, Paox” value ([5]; competitor 25 μM)?
The value was 2.9.

And the “SILAC ratio, Nenf” value ([6]; competitor 25 μM)?
Its value is 1.7.

And the “SILAC ratio Dld” value ([7]; competitor 25 μM)?
Its value is 1.3.

And the “SILAC ratio, Ptgr2” value ([8]; competitor 25 μM)?
Its value is 1.5.

What about the “SILAC ratio Ndufs2” value ([9]; competitor 25 μM) of the same compound?
The value was 1.3.

What about the “SILAC ratio, Tusc3” value ([10]; competitor 25 μM) of the same compound?
Its value is 1.6.

What does the source list for CN1CCN(C(=O)c2[nH]c3ccc([N+](=O)[O-])cc3c2-c2ccccc2)CC1 [MJN228, (4-Methylpiperazin-1-yl)(5-nitro-3-phenyl-1H-indol-2-yl)methanone]?
SILAC ratio Arl6ip1 ([1]; competitor 10 μM): 0.8; SILAC ratio Arl6ip1 ([1]; competitor 25 μM): 1.6; SILAC ratio Arl6ip1 ([1]; competitor 100 μM): 1.5; SILAC ratio, Sccpdh ([2]; competitor 10 μM): 1.4; SILAC ratio, Sccpdh ([2]; competitor 25 μM): 2.1; SILAC ratio, Sccpdh ([2]; competitor 50 μM): 3.3; SILAC ratio, Sccpdh ([2]; competitor 100 μM): 5.9; SILAC ratio Atp5f1 ([3]; competitor 10 μM): 1.2; SILAC ratio Atp5f1 ([3]; competitor 25 μM): 1.5; SILAC ratio Atp5f1 ([3]; competitor 50 μM): 1.6; SILAC ratio Atp5f1 ([3]; competitor 100 μM): 1.8; SILAC ratio Slc25a1 ([4]; competitor 10 μM): 1.2; SILAC ratio Slc25a1 ([4]; competitor 25 μM): 1.1; SILAC ratio Slc25a1 ([4]; competitor 50 μM): 1.5; SILAC ratio Slc25a1 ([4]; competitor 100 μM): 1.5; SILAC ratio, Paox ([5]; competitor 10 μM): 2.1; SILAC ratio, Paox ([5]; competitor 25 μM): 3.2; SILAC ratio, Paox ([5]; competitor 50 μM): 4.5; SILAC ratio, Paox ([5]; competitor 100 μM): 13.5; SILAC ratio, Nenf ([6]; competitor 10 μM): 1.3; SILAC ratio, Nenf ([6]; competitor 25 μM): 1.3; SILAC ratio, Nenf ([6]; competitor 50 μM): 1.8; SILAC ratio, Nenf ([6]; competitor 100 μM): 1.7; SILAC ratio Dld ([7]; competitor 10 μM): 1.2; SILAC ratio Dld ([7]; competitor 25 μM): 1.2; SILAC ratio Dld ([7]; competitor 50 μM): 1.2; SILAC ratio Dld ([7]; competitor 100 μM): 1.1; SILAC ratio, Ptgr2 ([8]; competitor 10 μM): 1.2; SILAC ratio, Ptgr2 ([8]; competitor 25 μM): 1.2; SILAC ratio, Ptgr2 ([8]; competitor 50 μM): 1.0; SILAC ratio, Ptgr2 ([8]; competitor 100 μM): 1.5; SILAC ratio Ndufs2 ([9]; competitor 10 μM): 1.3; SILAC ratio Ndufs2 ([9]; competitor 25 μM): 1.3; SILAC ratio Ndufs2 ([9]; competitor 100 μM): 1.1; SILAC ratio, Tusc3 ([10]; competitor 10 μM): 1.2; SILAC ratio, Tusc3 ([10]; competitor 25 μM): 1.6; SILAC ratio, Tusc3 ([10]; competitor 50 μM): 1.6; SILAC ratio, Tusc3 ([10]; competitor 100 μM): 2.6

C=CCN(C)CCCCCCOc1ccc(C(=O)c2ccc(Br)cc2)c(F)c1 [Ro 48-8071, reference compound] was tested. Which “SILAC ratio Arl6ip1” value ([1]; competitor 25 μM) did it give?
Its value is 1.1.

And the “SILAC ratio, Sccpdh” value ([2]; competitor 25 μM)?
Its value is 1.6.

And the “SILAC ratio Atp5f1” value ([3]; competitor 25 μM)?
The value was 1.0.

What about the “SILAC ratio Slc25a1” value ([4]; competitor 25 μM) of the same compound?
The value was 1.0.

What about the “SILAC ratio, Paox” value ([5]; competitor 25 μM) of the same compound?
Its value is 2.4.

What about the “SILAC ratio, Nenf” value ([6]; competitor 25 μM) of the same compound?
The value was 0.9.

What about the “SILAC ratio Dld” value ([7]; competitor 25 μM) of the same compound?
Its value is 0.8.

And the “SILAC ratio, Ptgr2” value ([8]; competitor 25 μM)?
The value was 1.1.

What about the “SILAC ratio Ndufs2” value ([9]; competitor 25 μM) of the same compound?
The value was 1.2.

What about the “SILAC ratio, Tusc3” value ([10]; competitor 25 μM) of the same compound?
Its value is 1.2.

Reference: US10168342B2, “Lipid probes and uses thereof” (THE SCRIPPS RESEARCH INSTITUTE, priority 2015, dated 2019)
